Data on three molecules can be found in ChEMBL document CHEMBL1133967, “New leads for selective inhibitors of alpha-L-fucosidases. Synthesis and glycosidase inhibitory activities of [(2R,3S,4R)-3,4-dihydroxypyrrolidin-2-yl]furan derivatives” (Bioorg Med Chem Lett, 2001).

The source made the active and inactive calls. The rule behind the calls is not given here.

Test [1] has as its system Canavalia ensiformis. Briefly: Inhibitory activity against Alpha-mannosidase of Jack bean at 1 mM; No inhibition.
For test [2], the target named is T1, Beta-galactosidase (Bos taurus) (UniProt Q58D55).
T1 sequence (whole entry): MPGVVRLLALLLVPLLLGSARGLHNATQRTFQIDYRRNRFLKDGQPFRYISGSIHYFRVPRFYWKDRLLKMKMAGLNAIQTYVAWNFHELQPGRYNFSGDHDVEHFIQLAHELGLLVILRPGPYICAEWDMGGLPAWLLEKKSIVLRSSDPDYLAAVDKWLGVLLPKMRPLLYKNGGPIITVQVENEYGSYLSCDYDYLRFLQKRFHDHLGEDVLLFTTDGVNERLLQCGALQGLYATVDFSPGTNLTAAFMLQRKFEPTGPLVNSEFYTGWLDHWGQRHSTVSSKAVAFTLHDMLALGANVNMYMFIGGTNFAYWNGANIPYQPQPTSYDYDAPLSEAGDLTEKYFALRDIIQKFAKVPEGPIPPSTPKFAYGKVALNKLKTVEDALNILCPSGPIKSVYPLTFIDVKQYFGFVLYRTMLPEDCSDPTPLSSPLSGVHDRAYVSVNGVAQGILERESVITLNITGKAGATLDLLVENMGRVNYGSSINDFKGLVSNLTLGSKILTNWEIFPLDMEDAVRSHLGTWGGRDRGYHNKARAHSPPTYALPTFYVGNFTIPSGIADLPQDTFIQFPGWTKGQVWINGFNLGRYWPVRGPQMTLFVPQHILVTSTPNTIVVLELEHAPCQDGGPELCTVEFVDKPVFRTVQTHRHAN
Kind of test: Percent inhibition against Beta-D-galactosidase of bovine liver at 1 mM.

The subject of test [3] is Aspergillus oryzae. Kind of test: Inhibitory activity against Beta-D-galactosidase of Aspergillus oryzae at 1 mM; No inhibition.
Test [4] deals with Glucoamylase (Aspergillus niger) (UniProt P69328). Briefly: Inhibitory activity against Amyloglucosidase of Aspergillus niger at 1 mM; No inhibition.
Sequence of Glucoamylase (Aspergillus niger) (P69328 whole entry): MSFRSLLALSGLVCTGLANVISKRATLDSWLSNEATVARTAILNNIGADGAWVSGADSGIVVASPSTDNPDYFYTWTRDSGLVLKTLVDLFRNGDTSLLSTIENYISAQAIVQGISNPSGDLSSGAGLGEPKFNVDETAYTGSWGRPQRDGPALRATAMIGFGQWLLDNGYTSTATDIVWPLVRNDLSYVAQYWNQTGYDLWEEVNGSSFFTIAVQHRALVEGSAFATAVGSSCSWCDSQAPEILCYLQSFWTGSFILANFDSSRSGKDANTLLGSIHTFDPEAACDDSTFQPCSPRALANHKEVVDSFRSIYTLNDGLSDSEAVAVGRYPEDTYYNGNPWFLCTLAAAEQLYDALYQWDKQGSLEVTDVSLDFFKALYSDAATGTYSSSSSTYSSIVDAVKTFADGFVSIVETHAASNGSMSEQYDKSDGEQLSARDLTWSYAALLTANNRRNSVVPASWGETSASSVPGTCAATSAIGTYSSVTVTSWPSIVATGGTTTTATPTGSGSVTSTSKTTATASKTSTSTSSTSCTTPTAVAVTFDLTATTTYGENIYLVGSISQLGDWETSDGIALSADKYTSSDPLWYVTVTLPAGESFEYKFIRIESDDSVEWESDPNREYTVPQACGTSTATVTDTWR
For test [5], the species on record is Gallus gallus. Kind of test: Inhibitory activity against alpha-N-acetylgalactosaminidase of chicken liver at 1 mM; No inhibition.
For test [6], the species on record is Bos taurus. Kind of test: Percent inhibition against alpha-L-Fucosidase of bovine epididymis at 1 mM.
Test [7] addresses Beta-galactosidase (Escherichia coli) (UniProt Q8VNN2). Kind of test: Inhibitory activity against Beta-D-galactosidase of Escherichia coli at 1 mM; No inhibition.
Test [8] relates to Beta-N-acetylglucosaminidase (Bos taurus). Kind of test: Inhibitory activity against Beta-N-acetylglucosaminidase of bovine epididymis B at 1 mM; No inhibition.
The target in test [9] is T2, Tissue alpha-L-fucosidase (Homo sapiens) (UniProt P04066).
T2 sequence (whole entry): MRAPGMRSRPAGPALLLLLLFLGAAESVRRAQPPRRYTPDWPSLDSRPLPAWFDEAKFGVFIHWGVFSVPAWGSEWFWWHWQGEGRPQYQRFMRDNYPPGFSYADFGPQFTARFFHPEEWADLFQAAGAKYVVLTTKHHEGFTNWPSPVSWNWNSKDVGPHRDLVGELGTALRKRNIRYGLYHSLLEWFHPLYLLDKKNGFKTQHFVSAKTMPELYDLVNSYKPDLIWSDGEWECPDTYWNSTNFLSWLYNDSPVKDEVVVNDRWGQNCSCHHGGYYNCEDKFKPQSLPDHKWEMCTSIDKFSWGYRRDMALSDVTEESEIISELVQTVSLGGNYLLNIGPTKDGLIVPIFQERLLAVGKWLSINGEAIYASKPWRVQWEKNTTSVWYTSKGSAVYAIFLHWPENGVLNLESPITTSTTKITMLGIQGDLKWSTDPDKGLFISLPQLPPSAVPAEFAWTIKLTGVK
Kind of test: Percent inhibition against alpha-L-Fucosidase of human placenta at 1 mM.

Test [10] has as its system Beta-N-acetylglucosaminidase (Bos taurus). Kind of test: Inhibitory activity against Beta-N-acetylglucosaminidase of bovine epididymis A at 1 mM; No inhibition.
The subject of test [11] is Escherichia coli. Kind of test: Inhibitory activity against Alpha-galactosidase of Escherichia coli at 1 mM; No inhibition.
Test [12] has as its target T3, Beta-galactosidase (Aspergillus niger) (UniProt P29853).
T3 sequence (whole entry): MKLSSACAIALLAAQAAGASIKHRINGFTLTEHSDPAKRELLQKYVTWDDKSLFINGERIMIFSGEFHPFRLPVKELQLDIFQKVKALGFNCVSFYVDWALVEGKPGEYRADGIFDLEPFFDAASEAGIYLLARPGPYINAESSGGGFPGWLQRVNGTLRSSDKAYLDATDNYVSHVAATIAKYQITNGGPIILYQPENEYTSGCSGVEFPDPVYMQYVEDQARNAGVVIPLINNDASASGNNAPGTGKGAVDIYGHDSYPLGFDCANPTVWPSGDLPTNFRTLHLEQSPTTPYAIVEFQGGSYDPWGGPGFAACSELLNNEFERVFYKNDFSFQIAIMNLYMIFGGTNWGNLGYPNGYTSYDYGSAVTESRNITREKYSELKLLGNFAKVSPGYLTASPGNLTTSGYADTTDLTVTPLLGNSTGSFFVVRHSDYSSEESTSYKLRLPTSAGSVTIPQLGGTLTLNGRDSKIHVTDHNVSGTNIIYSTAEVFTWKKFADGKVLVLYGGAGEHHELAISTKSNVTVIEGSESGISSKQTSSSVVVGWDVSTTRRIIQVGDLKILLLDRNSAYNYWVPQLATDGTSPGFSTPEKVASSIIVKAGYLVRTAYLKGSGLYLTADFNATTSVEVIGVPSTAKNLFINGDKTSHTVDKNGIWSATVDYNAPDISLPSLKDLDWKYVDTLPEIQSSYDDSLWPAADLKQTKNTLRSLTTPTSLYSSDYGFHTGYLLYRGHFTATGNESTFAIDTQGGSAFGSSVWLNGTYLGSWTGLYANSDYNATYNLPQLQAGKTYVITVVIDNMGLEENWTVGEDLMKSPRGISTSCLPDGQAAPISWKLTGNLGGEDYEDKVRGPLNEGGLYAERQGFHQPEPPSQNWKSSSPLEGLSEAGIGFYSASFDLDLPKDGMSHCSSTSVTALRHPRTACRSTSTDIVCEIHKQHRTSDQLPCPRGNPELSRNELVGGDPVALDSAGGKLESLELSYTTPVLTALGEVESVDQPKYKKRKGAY
Briefly: Inhibitory activity against Beta-D-galactosidase of Aspergillus niger at 1 mM; No inhibition.

Test [13] deals with Caldicellulosiruptor saccharolyticus. Briefly: Inhibitory activity against Beta-glucosidase of Caldocellum saccharolyticum at 1 mM; No inhibition.
Test [14] deals with Helix pomatia. Briefly: Inhibitory activity against Beta-mannosidase of Helix pomatia at 1 mM; No inhibition.
In test [15] the test system is maltase (Saccharomyces cerevisiae). Briefly: Inhibitory activity against maltase of yeast at 1 mM; No inhibition.
Test [16] relates to Prunus dulcis. Briefly: Inhibitory activity against Beta-glucosidase of almonds at 1 mM; No inhibition.
For test [17], the system named is maltase (Oryza sativa). Kind of test: Inhibitory activity against maltase of rice at 1 mM; No inhibition.
Test [18] concerns Beta-N-acetylglucosaminidase (Canavalia ensiformis). Kind of test: Inhibitory activity against Beta-N-acetylglucosaminidase of Jack bean at 1 mM; No inhibition.
The target in test [19] is T4, Tissue alpha-L-fucosidase (Homo sapiens, UniProt P04066).
T4 sequence (P04066 whole entry): T2 sequence (whole entry)
Briefly: Inhibitory concentration against alpha-L-Fucosidase of human placenta.

Test [20] deals with Canavalia ensiformis. Kind of test: Inhibitory activity against Beta-D-galactosidase of Jack bean at 1 mM; No inhibition.
Test [21] has as its system isomaltase (Saccharomyces cerevisiae). Briefly: Inhibitory activity against isomaltase of baker yeast at 1 mM; No inhibition.
Test [22] has as its system Prunus dulcis. Kind of test: Inhibitory activity against Alpha-mannosidase of Almonds at 1 mM; No inhibition.
The test system of test [23] is Aspergillus niger. Kind of test: Inhibitory activity against Alpha-galactosidase of Aspergillus niger at 1 mM; No inhibition.
The subject of test [24] is Rhizopus. Kind of test: Inhibitory activity against Amyloglucosidase of Rhizopus mold at 1 mM; No inhibition.
In test [25] the test system is Coffea arabica. Briefly: Inhibitory activity against Alpha-galactosidase of coffee bean at 1 mM; No inhibition.
Test [26] addresses Beta-galactosidase (Bos taurus, UniProt Q58D55). Kind of test: Inhibitory concentration against Beta-D-galactosidase of bovine liver.
In test [27] the test system is Canavalia ensiformis. Kind of test: Percent inhibition against Alpha-mannosidase of Jack bean at 1 mM.
The subject of test [28] is Prunus dulcis. Briefly: Percent inhibition against Alpha-mannosidase of Almonds at 1 mM.
The target of test [29] is Beta-galactosidase (Escherichia coli) (UniProt Q8VNN2). Briefly: Inhibitory activity against beta-D-Galactosidase of Escherichia coli at 1 mM; No inhibition.
Sequence of Beta-galactosidase (Escherichia coli) (Q8VNN2 whole entry, looked up): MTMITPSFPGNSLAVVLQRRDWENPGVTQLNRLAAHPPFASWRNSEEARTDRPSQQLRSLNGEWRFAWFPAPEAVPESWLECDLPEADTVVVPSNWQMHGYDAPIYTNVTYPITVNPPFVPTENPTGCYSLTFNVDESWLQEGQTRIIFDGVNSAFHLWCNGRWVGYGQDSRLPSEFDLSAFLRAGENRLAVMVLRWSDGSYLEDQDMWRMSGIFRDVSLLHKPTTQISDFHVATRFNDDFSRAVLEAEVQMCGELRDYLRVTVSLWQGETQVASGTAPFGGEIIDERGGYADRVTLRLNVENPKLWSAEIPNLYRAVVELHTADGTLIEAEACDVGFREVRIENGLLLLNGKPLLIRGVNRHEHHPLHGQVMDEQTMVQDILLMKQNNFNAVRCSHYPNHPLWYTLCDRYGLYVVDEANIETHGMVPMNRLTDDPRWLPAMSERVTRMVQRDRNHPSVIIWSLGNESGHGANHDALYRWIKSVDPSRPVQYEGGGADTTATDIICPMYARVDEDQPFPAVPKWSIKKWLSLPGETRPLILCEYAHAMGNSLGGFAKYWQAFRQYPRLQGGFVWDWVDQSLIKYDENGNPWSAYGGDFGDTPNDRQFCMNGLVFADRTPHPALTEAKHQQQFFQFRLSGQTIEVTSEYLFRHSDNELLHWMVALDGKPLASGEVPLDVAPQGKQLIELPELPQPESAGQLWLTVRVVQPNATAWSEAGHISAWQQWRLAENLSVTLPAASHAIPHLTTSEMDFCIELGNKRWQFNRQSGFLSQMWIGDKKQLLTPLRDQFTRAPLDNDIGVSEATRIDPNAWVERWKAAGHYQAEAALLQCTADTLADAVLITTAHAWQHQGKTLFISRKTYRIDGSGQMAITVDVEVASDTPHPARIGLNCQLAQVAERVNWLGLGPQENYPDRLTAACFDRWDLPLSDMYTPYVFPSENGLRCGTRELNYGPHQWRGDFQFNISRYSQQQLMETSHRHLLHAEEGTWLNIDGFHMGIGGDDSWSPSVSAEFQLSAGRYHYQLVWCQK
Test [30] has as its target Glucoamylase (Aspergillus niger) (UniProt P69328). Kind of test: Percent inhibition against Amyloglucosidase of Aspergillus niger at 1 mM.
Test [31] in a line: Inhibitory activity against Alpha-mannosidase of Jack bean expressed as Ki. Further details: species or system Canavalia ensiformis.
Test [32] in a line: Inhibitory concentration against Alpha-mannosidase of Jack bean. Further details: species or system Canavalia ensiformis.
Test [33] concerns the target T4, Tissue alpha-L-fucosidase. Briefly: Inhibitory activity against alpha-L-Fucosidase of human placenta expressed as Ki.
For test [34], the system named is Rhizopus. Briefly: Percent inhibition against Amyloglucosidase of Rhizopus mold at 1 mM.
The test system of test [35] is Coffea arabica. Briefly: Percent inhibition against Alpha-galactosidase of coffee bean at 1 mM.

For the molecule `Cc1oc(C2NCC(O)C2O)cc1C(=O)Nc1ccccc1` (stereo not given), the inhibition entry in test [1], in [3], in test [4], in test [5], in [7] and in test [8] was “inactive” each time. The inhibition result in [10], in test [11], in [12], in test [15], in test [16] and in [17] was “inactive” each time. Further, the inhibition result in test [18], in test [20], in test [21], in test [22], in [23] and in test [24] was “inactive” throughout. The inhibition entry in test [25] was “inactive”. In addition, the inhibition was 39% in [2]; less than 10% in test [6]; 51% in test [9]; “No inhibition” in [13]; “No inhibition” in [14]. In addition, half-maximal inhibition in test [19] (IC50) was put at 1000 µM.
Consider `Cc1oc(C2NCC(O)C2O)cc1C(=O)OC(C)C` (stereo not given), for which the inhibition was 57% in test [2], 78% in test [27], 57% in test [28] and 27% in [30]. The 50% inhibitory concentration (IC50) turned out to be 640 µM in test [26] and 250 µM in test [32]. The inhibition result in [12] and in [29] was “inactive” throughout. This molecule also registered an inhibition constant (Ki) in test [31] of 85 µM.
For `COC(=O)c1cc(C2NCC(O)C2O)oc1C` (stereo not given), the inhibition constant Ki in test [33] is 13.8 µM. For the same molecule, the inhibition in test [2] was 54%; in test [3], “No inhibition”; in test [5], “No inhibition”; in [7], “No inhibition”; in test [27], 23%; in test [34] it was 33%. Also, the inhibition in [28] was 36%; in test [9], 88%; in [35], 42%; in test [11], “No inhibition”; in test [12], “No inhibition”; in test [13], “No inhibition”. The inhibition entry is “No inhibition” in test [14]; “No inhibition” in [15]; “No inhibition” in test [17]; 23% in test [30]; “No inhibition” in test [20]; “No inhibition” in [21]. The inhibition result in [23] is “No inhibition”. The values for the half-maximal inhibitory concentration (IC50) in test [26] and in test [19] were 800 µM and 150 µM, respectively. The inhibition entry in [8], in [10], in test [16] and in test [18] was “inactive” in each case.

The inhibition is the relative decrease from the control value, in per cent. One may read the IC50 as the concentration that gives 50% inhibition. High values mean weaker potency in that assay, low ones greater potency in that assay. The Ki is the equilibrium dissociation constant of an inhibitor or competing ligand from its target. The low end stands for higher affinity, the high end for lower affinity.
